Results taken from ChEMBL document CHEMBL3991601, “The target landscape of clinical kinase drugs” (Science, 2017).
Activity calls are given as the source filed them. Rule as the data show it, for most assays here: actives have a measured Kd and inactives only a lower limit.

What was measured:
[1] = biological target: Tyrosine-protein kinase BTK (Homo sapiens, UniProt Q06187)
[2] = biological target: T1, Phosphatidylinositol 5-phosphate 4-kinase type-2 gamma (Homo sapiens, UniProt Q8TBX8)
T1 sequence (Q8TBX8 whole entry): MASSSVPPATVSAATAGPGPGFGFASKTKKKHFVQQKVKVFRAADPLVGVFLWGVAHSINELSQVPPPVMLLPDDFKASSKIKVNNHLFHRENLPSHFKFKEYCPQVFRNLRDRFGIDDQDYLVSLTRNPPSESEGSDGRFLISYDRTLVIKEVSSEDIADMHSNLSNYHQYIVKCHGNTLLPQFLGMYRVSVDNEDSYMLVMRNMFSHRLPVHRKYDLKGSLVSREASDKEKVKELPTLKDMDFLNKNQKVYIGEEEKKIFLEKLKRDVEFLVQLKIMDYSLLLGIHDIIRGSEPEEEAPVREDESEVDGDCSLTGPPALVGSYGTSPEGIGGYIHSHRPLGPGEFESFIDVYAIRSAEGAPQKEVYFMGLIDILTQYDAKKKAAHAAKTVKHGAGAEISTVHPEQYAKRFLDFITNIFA

[3] = biological target: T2, Non-receptor tyrosine-protein kinase TNK1 (Homo sapiens, UniProt Q13470)
T2 sequence (Q13470 whole entry): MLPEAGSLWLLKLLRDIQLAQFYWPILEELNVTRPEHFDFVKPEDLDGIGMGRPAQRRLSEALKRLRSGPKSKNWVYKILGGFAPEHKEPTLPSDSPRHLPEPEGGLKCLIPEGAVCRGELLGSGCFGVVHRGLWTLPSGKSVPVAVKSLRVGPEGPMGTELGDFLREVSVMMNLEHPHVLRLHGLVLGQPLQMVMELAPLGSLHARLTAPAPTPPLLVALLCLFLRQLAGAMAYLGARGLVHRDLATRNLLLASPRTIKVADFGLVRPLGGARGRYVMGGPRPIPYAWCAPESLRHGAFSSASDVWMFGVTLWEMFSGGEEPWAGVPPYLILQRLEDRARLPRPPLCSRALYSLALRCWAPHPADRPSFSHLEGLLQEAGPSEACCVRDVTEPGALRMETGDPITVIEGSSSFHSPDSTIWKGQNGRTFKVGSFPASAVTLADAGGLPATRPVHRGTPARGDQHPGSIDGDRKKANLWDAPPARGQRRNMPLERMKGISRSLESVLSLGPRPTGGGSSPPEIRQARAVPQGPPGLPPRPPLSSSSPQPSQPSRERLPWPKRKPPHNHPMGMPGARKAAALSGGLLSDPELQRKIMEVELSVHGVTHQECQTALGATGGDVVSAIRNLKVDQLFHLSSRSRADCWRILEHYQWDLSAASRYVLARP

[4] = biological target: Cyclin-dependent kinase 13 (Homo sapiens, UniProt Q14004)
[5] = biological target: Fibroblast growth factor receptor 1 (Homo sapiens, UniProt P11362)
[6] = biological target: Tyrosine-protein kinase CSK (Homo sapiens, UniProt P41240)
[7] = biological target: Casein kinase I isoform alpha (Homo sapiens, UniProt P48729)
[8] = biological target: Serine/threonine-protein kinase B-raf (Homo sapiens, UniProt P15056)
[9] = biological target: Mitogen-activated protein kinase 3 (Homo sapiens, UniProt P27361)
[10] = biological target: Protein kinase C beta type (Homo sapiens, UniProt P05771)
Ephrin type-A receptor 2 = Ephrin type-A receptor 2 (Homo sapiens, UniProt P29317)
[11] = biological target: T3, General transcription and DNA repair factor IIH helicase subunit XPD (Homo sapiens, UniProt P18074); details: read-out: Kd apparent; k-562, colo 205, sk-n-be(2) and mv-4-11
T3 sequence (P18074 whole entry): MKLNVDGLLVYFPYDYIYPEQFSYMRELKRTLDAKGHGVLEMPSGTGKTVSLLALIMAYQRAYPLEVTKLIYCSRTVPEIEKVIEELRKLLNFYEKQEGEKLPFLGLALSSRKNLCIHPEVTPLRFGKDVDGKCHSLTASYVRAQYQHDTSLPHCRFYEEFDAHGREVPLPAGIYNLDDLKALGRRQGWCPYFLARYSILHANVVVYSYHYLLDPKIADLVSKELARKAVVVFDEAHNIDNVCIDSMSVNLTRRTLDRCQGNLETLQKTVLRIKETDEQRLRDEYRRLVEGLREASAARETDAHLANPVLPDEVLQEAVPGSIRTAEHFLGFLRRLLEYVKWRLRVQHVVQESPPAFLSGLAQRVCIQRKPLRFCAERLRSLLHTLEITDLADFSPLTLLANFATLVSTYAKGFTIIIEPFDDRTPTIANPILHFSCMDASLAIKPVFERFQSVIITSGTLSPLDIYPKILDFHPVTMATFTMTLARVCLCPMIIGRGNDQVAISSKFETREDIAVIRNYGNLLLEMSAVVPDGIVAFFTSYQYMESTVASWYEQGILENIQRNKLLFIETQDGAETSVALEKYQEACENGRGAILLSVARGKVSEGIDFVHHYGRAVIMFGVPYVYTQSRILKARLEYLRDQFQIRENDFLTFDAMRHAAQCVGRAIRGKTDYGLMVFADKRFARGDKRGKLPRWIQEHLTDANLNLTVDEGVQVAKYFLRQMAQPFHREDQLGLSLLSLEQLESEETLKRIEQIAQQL

Rab-like protein 3 = biological target: T4, Rab-like protein 3 (Homo sapiens, UniProt Q5HYI8)
T4 sequence (Q5HYI8 whole entry): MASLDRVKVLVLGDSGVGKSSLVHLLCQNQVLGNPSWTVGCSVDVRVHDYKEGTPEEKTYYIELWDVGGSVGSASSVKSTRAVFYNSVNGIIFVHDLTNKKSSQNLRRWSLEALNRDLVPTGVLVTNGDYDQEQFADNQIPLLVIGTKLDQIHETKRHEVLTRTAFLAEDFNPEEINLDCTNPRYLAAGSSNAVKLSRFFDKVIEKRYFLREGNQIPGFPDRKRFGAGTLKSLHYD
Also: in the data inactive means no Kd found up to 30 µM.

Sequence of Casein kinase I isoform alpha (P48729 whole entry, canonical isoform): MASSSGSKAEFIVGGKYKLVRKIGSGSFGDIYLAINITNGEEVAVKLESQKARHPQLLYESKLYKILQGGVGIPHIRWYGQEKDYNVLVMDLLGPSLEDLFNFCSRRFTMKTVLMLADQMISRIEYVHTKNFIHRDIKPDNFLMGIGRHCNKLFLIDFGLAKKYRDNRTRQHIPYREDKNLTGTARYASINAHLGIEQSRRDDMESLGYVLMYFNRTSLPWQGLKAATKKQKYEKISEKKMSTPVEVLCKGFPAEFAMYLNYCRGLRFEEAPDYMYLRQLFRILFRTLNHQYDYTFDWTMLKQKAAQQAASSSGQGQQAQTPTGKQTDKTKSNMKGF
Sequence of Fibroblast growth factor receptor 1 (P11362 whole entry): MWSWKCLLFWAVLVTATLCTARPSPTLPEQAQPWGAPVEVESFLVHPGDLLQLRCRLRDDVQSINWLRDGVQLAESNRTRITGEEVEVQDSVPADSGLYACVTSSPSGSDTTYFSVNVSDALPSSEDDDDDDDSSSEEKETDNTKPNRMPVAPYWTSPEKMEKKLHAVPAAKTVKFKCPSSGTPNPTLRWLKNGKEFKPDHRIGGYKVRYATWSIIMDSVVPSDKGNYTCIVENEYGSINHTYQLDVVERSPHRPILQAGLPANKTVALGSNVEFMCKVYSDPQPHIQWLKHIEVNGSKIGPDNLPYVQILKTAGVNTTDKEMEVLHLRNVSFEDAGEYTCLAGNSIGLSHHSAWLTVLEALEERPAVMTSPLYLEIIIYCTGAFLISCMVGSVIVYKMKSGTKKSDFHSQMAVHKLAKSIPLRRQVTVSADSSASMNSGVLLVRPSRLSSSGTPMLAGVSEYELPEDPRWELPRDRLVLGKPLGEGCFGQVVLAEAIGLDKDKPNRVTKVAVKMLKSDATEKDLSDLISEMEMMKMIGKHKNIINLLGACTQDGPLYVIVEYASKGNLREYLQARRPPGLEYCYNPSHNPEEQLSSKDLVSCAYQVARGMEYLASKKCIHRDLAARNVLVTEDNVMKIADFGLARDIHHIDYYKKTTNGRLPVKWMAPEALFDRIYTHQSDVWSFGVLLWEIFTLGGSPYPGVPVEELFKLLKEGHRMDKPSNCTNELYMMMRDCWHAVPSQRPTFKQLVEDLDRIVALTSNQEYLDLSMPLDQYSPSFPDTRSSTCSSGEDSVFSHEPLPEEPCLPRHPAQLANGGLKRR
Sequence of Protein kinase C beta type (P05771 whole entry): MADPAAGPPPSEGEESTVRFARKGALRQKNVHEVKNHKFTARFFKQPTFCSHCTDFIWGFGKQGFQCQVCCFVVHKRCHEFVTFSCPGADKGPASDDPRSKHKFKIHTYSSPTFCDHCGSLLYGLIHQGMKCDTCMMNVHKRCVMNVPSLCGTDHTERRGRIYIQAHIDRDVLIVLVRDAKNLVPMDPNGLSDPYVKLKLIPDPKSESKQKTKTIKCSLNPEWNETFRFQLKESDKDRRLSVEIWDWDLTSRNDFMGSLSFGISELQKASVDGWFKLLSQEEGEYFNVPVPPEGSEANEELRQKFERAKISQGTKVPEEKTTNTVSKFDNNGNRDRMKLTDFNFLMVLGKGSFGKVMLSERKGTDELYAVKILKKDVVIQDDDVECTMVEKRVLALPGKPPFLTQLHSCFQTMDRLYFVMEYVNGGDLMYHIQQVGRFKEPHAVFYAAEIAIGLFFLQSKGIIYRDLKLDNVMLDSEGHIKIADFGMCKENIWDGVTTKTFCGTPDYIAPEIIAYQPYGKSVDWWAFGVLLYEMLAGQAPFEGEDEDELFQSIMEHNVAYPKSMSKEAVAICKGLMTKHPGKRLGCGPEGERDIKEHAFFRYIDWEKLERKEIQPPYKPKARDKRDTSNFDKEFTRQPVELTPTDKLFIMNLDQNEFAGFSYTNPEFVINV
Sequence of Mitogen-activated protein kinase 3 (P27361 whole entry): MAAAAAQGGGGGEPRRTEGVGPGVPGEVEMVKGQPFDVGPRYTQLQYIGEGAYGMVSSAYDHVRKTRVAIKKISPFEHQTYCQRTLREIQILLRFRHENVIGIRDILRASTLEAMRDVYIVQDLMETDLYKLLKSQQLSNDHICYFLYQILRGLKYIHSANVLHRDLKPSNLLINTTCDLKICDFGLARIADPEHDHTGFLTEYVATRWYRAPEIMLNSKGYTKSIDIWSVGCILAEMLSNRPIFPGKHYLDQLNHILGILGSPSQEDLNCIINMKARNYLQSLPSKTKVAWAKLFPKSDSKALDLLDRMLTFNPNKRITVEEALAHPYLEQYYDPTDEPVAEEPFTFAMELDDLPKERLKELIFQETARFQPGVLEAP
Sequence of Ephrin type-A receptor 2 (P29317 whole entry): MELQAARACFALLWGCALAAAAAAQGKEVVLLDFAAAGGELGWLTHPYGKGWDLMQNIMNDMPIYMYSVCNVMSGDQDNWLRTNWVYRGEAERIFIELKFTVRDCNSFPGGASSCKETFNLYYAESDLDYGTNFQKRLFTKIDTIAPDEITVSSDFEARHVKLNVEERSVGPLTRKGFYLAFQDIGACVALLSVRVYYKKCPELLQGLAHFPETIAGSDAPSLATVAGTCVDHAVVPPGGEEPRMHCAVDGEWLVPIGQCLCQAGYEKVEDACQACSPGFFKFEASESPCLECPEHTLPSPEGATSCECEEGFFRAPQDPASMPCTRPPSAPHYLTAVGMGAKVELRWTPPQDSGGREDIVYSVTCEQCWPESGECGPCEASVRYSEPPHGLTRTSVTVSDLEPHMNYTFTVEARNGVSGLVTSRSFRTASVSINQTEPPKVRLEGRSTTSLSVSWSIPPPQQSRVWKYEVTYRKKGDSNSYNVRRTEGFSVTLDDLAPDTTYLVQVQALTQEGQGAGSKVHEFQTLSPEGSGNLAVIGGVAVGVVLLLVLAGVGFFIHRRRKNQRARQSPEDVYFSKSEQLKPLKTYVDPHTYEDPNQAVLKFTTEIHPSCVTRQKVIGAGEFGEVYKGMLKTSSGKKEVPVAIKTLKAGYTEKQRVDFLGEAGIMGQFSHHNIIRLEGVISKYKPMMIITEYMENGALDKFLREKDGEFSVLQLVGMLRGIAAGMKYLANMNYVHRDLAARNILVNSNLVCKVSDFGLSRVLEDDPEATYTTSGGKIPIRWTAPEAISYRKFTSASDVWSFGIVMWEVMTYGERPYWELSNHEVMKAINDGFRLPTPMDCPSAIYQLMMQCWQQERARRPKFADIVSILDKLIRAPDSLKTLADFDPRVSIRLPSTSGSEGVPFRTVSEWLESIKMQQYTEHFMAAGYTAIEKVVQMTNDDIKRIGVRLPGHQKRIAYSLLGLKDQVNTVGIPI
Sequence of Cyclin-dependent kinase 13 (Q14004 whole entry): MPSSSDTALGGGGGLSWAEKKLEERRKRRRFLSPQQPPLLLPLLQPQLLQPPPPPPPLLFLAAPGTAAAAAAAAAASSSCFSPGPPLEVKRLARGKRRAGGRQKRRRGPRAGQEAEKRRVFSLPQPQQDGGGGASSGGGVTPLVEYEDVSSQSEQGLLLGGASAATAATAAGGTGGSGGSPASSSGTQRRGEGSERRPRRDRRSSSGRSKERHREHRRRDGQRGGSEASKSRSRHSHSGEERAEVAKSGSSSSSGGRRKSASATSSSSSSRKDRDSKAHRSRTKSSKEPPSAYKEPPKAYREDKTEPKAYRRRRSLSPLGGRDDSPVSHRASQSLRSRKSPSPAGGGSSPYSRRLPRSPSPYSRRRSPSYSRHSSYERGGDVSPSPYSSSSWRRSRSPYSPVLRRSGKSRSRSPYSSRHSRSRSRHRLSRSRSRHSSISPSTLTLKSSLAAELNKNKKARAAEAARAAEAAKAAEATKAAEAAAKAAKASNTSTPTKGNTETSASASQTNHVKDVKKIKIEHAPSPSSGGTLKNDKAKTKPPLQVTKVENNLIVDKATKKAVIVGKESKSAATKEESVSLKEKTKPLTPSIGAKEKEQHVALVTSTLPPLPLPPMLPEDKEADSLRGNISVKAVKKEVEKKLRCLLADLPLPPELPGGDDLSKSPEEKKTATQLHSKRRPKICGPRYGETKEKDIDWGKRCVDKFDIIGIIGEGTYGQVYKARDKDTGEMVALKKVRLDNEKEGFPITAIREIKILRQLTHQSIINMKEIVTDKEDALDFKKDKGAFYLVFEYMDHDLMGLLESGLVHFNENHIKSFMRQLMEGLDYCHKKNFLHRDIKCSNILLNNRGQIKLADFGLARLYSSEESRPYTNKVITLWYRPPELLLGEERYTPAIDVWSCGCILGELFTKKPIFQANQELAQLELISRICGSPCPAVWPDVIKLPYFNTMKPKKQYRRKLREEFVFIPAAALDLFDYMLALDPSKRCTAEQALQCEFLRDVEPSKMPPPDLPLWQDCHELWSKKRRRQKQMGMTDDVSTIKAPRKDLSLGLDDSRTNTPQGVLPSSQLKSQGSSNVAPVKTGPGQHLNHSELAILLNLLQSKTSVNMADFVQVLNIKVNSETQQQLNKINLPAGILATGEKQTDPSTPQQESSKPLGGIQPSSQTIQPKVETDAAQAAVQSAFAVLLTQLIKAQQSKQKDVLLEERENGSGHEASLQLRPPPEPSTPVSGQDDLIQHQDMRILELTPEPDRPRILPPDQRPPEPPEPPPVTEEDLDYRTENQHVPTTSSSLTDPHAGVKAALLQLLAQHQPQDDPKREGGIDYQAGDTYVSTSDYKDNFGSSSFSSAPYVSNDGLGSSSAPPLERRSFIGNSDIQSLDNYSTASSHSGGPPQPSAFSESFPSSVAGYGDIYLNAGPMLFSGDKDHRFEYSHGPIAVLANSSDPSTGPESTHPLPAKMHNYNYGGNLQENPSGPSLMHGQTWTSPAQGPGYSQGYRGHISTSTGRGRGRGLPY

Kd [1] | Kd [2] | Kd [3] | Kd [4] | Kd [5] | Kd [6] | Kd [7] | Kd [8] | Kd [9] | Kd [10] | Kd (Ephrin type-A receptor 2) | Kd [11] | Kd (Rab-like protein 3) | Compound
> 30 µM (inactive) | > 30 µM (inactive) | > 30 µM (inactive) | > 30 µM (inactive) | > 30 µM (inactive) | > 30 µM (inactive) | > 30 µM (inactive) | 0.007 µM | > 30 µM (inactive) | > 30 µM (inactive) | > 30 µM (inactive) | > 30 µM (inactive) | > 30 µM (inactive) | CNS(=O)(=O)Nc1nccc(Cc2c(C)c3ccc(Oc4ncccn4)cc3oc2=O)c1F [AVUTOMETINIB]
> 30 µM (inactive) | > 30 µM (inactive) | > 30 µM (inactive) | > 30 µM (inactive) | 3.9 µM (active) | > 30 µM (inactive) | > 30 µM (inactive) | > 30 µM (inactive) | > 30 µM (inactive) | > 30 µM (inactive) | > 30 µM (inactive) | > 30 µM (inactive) | > 30 µM (inactive) | Cc1cc2c(F)c(Oc3ncnn4cc(OC[C@@H](C)OC(=O)[C@H](C)N)c(C)c34)ccc2[nH]1 [BRIVANIB ALANINATE]
> 30 µM (inactive) | > 30 µM (inactive) | > 30 µM (inactive) | > 30 µM (inactive) | > 30 µM (inactive) | > 30 µM (inactive) | > 30 µM (inactive) | > 30 µM (inactive) | > 30 µM (inactive) | > 30 µM (inactive) | > 30 µM (inactive) | > 30 µM (inactive) | > 30 µM (inactive) | Cc1ccc(S(=O)(=O)Nc2nc3ccccc3nc2Nc2ccc3nsnc3c2)cc1
> 30 µM (inactive) | > 30 µM (inactive) | > 30 µM (inactive) | > 30 µM (inactive) | > 30 µM (inactive) | > 30 µM (inactive) | > 30 µM (inactive) | > 30 µM (inactive) | > 30 µM (inactive) | > 30 µM (inactive) | > 30 µM (inactive) | > 30 µM (inactive) | > 30 µM (inactive) | Cc1c(F)cc(C(=O)NC2CC2)cc1-c1ccc(C(=O)NCC(C)(C)C)cn1 [LOSMAPIMOD]
0.494 µM (active) | > 30 µM (inactive) | 0.033 µM (active) | > 30 µM (inactive) | > 30 µM (inactive) | > 30 µM (inactive) | > 30 µM (inactive) | > 30 µM (inactive) | > 30 µM (inactive) | > 30 µM (inactive) | 1.25 µM (active) | > 30 µM (inactive) | > 30 µM (inactive) | COc1cc(N2CCC(N3CCN(C)CC3)CC2)ccc1Nc1ncnc(Nc2ccccc2S(=O)(=O)C(C)C)n1 [ASP-3026]
> 30 µM (inactive) | > 30 µM (inactive) | > 30 µM (inactive) | > 30 µM (inactive) | > 30 µM (inactive) | > 30 µM (inactive) | > 30 µM (inactive) | > 30 µM (inactive) | > 30 µM (inactive) | > 30 µM (inactive) | > 30 µM (inactive) | > 30 µM (inactive) | > 30 µM (inactive) | CC(=O)Nc1cccc(-n2c(=O)n(C3CC3)c(=O)c3c(Nc4ccc(I)cc4F)n(C)c(=O)c(C)c32)c1 [TRAMETINIB]
> 30 µM (inactive) | > 30 µM (inactive) | > 30 µM (inactive) | > 30 µM (inactive) | > 30 µM (inactive) | > 30 µM (inactive) | > 30 µM (inactive) | > 30 µM (inactive) | > 30 µM (inactive) | > 30 µM (inactive) | > 30 µM (inactive) | > 30 µM (inactive) | > 30 µM (inactive) | CCN1CCN(Cc2ccc(-c3cc4c(N[C@H](C)c5ccccc5)ncnc4[nH]3)cc2)CC1 [AEE-788]
> 30 µM (inactive) | 0.331 µM | > 30 µM (inactive) | > 30 µM (inactive) | > 30 µM (inactive) | > 30 µM (inactive) | > 30 µM (inactive) | > 30 µM (inactive) | > 30 µM (inactive) | > 30 µM (inactive) | > 30 µM (inactive) | > 30 µM (inactive) | > 30 µM (inactive) | O=C1NC(=O)/C(=C/c2ccc3nccc(-c4ccncc4)c3c2)S1 [GSK-1059615]
> 30 µM (inactive) | > 30 µM (inactive) | > 30 µM (inactive) | > 30 µM (inactive) | > 30 µM (inactive) | > 30 µM (inactive) | > 30 µM (inactive) | > 30 µM (inactive) | > 30 µM (inactive) | > 30 µM (inactive) | > 30 µM (inactive) | > 30 µM (inactive) | > 30 µM (inactive) | CN1CCC(CNc2ccc3ncc(-c4cccc(OC(F)(F)F)c4)n3n2)CC1 [SGI-1776]
> 30 µM (inactive) | > 30 µM (inactive) | > 30 µM (inactive) | > 30 µM (inactive) | > 30 µM (inactive) | > 30 µM (inactive) | > 30 µM (inactive) | > 30 µM (inactive) | > 30 µM (inactive) | > 30 µM (inactive) | > 30 µM (inactive) | > 30 µM (inactive) | > 30 µM (inactive) | O=c1sn(-c2cccc3ccccc23)c(=O)n1Cc1ccccc1 [TIDEGLUSIB]

Compound | Kd [1] | Kd [2] | Kd [3] | Kd [4] | Kd [5] | Kd [6] | Kd [7] | Kd [8] | Kd [9] | Kd [10] | Kd (Ephrin type-A receptor 2) | Kd [11] | Kd (Rab-like protein 3)
C=CC(=O)N1CCC(Oc2cc3c(Nc4ccc(Cl)c(Cl)c4F)ncnc3cc2OC)CC1 [POZIOTINIB] | 0.003 µM (active) | > 30 µM (inactive) | 1.68 µM (active) | > 30 µM (inactive) | > 30 µM (inactive) | > 30 µM (inactive) | > 30 µM (inactive) | > 30 µM (inactive) | > 30 µM (inactive) | > 30 µM (inactive) | > 30 µM (inactive) | > 30 µM (inactive) | > 30 µM (inactive)
CN1CC[C@@H](c2c(O)cc(O)c3c(=O)cc(-c4ccccc4Cl)oc23)[C@@H]1CO | > 30 µM (inactive) | > 30 µM (inactive) | > 30 µM (inactive) | > 30 µM (inactive) | > 30 µM (inactive) | > 30 µM (inactive) | > 30 µM (inactive) | > 30 µM (inactive) | > 30 µM (inactive) | > 30 µM (inactive) | > 30 µM (inactive) | > 30 µM (inactive) | > 30 µM (inactive)
